ChEMBL document CHEMBL5316331, “Modulating Cytotoxicity with Lego-like Chemistry: Upgrading Mitochondriotropic Antioxidants with Prototypical Cationic Carrier Bricks” (J Med Chem, 2023)
Active and inactive are the calls of the source. The calls are words filed in the database; no cut-off is given here.

Experiments:
SH-SY5Y [1] = assay: Neuroprotective activity against tBHP-induced human SH-SY5Y cells assessed as increase in cell viability at 10 uM preincubated for 30 mins followed by t-BHP addition and measured after 24 hrs by SRB assay; format: functional, cell-based; settings: time 24.5 hrs
SH-SY5Y [2] = assay: Antioxidant activity against human SH-SY5Y cells assessed as effect on intracellular ATP level at 50 uM incubated for 24 hrs followed by addition of oligomycin/FCCP/antimycin A /rotenone by Cell Mito stress assay based seahorse XF96 flux analyzer; format: functional
SH-SY5Y [3] = assay: Antioxidant activity against human SH-SY5Y cells assessed as increase in maximal respiration at 10 uM incubated for 24 hrs followed by addition of oligomycin/FCCP/antimycin A /rotenone by Cell Mito stress assay based seahorse XF96 flux analyzer; format: functional
SH-SY5Y [4] = assay: Effect on cell mitochondrial mass in human SH-SY5Y cells assessed as reduction on mitochondrial mass at 50 uM incubated for 24 hrs by mito-tracker green dye based flow cytometry; format: functional; parameters: scale not given: the % may be the effect or the level left
SH-SY5Y [5] = assay: Neuroprotective activity against tBHP-induced human SH-SY5Y cells assessed as increase in cell viability at 10 uM preincubated for 30 mins followed by t-BHP addition at 15 uM and measured after 24 hrs by neutral dye uptake assay relative to control; format: functional; settings: time 24.5 hrs
[6] = Drug uptake in C57BL/6J mouse liver mitochondria at 5 uM in presence of rotenone by UPLC analysis; format: ADME
SH-SY5Y [7] = assay: Effect on cell death pathway in human SH-SY5Y cells assessed as decrease in late apoptotic cells at 10 uM incubated for 24 hrs by Annexin V-FITC/PI staining based microscopy; format: functional
SH-SY5Y [8] = assay: Effect on cell death pathway in human SH-SY5Y cells assessed as decrease in early apoptotic cells at 10 uM incubated for 24 hrs by Annexin V-FITC/PI staining based microscopy; format: functional
SH-SY5Y [9] = assay: Induction of mitochondrial membrane polarization in human SH-SY5Y cells at 50 uM incubated for 24 hrs by JC-1 staining based fluorescence assay; format: functional
SH-SY5Y [10] = assay: Antioxidant activity against human SH-SY5Y cells assessed as increase in ATP production-linked respiration at 10 uM incubated for 24 hrs followed by addition of oligomycin/FCCP/antimycin A /rotenone by Cell Mito stress assay based seahorse XF96 flux analyzer; format: functional
SH-SY5Y [11] = assay: Antioxidant activity against human SH-SY5Y cells assessed as increase in basal OCR at 10 uM incubated for 24 hrs followed by addition of oligomycin/FCCP/antimycin A /rotenone by Cell Mito stress assay based seahorse XF96 flux analyzer; format: functional
SH-SY5Y [12] = assay: Neuroprotective activity against H2O2-induced human SH-SY5Y cells assessed as increase in cell viability at 10 uM preincubated for 30 mins followed by H2O2 addition and measured after 24 hrs by SRB assay; format: functional, cell-based; settings: time 24.5 hrs
SH-SY5Y [13] = assay: Neuroprotective activity against tBHP-induced human SH-SY5Y cells assessed as increase in cell viability at 50 uM preincubated for 30 mins followed by t-BHP addition and measured after 24 hrs by SRB assay; format: functional, cell-based; settings: time 24.5 hrs
HepG2 = assay: Cytotoxicity against human HepG2 cells assessed as increase in cell viability at 10 to 100 uM incubated for 24 hrs; format: toxicity, cell-based; settings: hepg2, 24 h, dose 10-100 µM
SH-SY5Y [14] = assay: Effect on cell death pathway in human SH-SY5Y cells assessed as decrease in necrotic cells at 10 uM incubated for 24 hrs by Annexin V-FITC/PI staining based microscopy; format: functional
SH-SY5Y [15] = assay: Neuroprotective activity against H2O2-induced human SH-SY5Y cells assessed as increase in cell viability at 50 uM preincubated for 30 mins followed by H2O2 addition and measured after 24 hrs by SRB assay; format: functional, cell-based; settings: time 24.5 hrs
[16] = Cytotoxicity against human HepG2 cells assessed as cell viability incubated for 24 hrs; format: toxicity, cell-based; settings: read-out: Activity
SH-SY5Y [17] = assay: Neuroprotective activity against tBHP-induced human SH-SY5Y cells assessed as increase in cell viability at 50 uM preincubated for 30 mins followed by t-BHP addition at 30 uM and measured after 24 hrs by neutral dye uptake assay relative to control; format: functional; settings: time 24.5 hrs
[18] = Drug uptake in C57BL/6J mouse liver mitochondria at 5 uM in presence of FCCP by UPLC analysis; format: ADME
SH-SY5Y [19] = assay: Effect on cell death pathway in human SH-SY5Y cells assessed as decrease in necrotic cells at 50 uM incubated for 24 hrs by Annexin V-FITC/PI staining based microscopy; format: functional
SH-SY5Y [20] = assay: Antioxidant activity against human SH-SY5Y cells assessed as increase in spare respiratory capacity at 10 uM incubated for 24 hrs followed by addition of oligomycin/FCCP/antimycin A /rotenone by Cell Mito stress assay based seahorse XF96 flux analyzer; format: functional
SH-SY5Y [21] = assay: Neuroprotective activity against tBHP-induced human SH-SY5Y cells assessed as increase in cell viability at 50 uM preincubated for 30 mins followed by t-BHP addition at 15 uM and measured after 24 hrs by neutral dye uptake assay relative to control; format: functional; settings: time 24.5 hrs
SH-SY5Y [22] = assay: Effect on cell death pathway in human SH-SY5Y cells assessed as decrease in late apoptotic cells at 50 uM incubated for 24 hrs by Annexin V-FITC/PI staining based microscopy; format: functional
[23] = Dissociation constant, pKa of the compound by UV-vis spectrophotometric analysis; format: physicochemical
SH-SY5Y [24] = assay: Antioxidant activity against human SH-SY5Y cells assessed as increase in basal respiration at 10 uM incubated for 24 hrs followed by addition of oligomycin/FCCP/antimycin A /rotenone by Cell Mito stress assay based seahorse XF96 flux analyzer; format: functional
[25] = Cytotoxicity against human SH-SY5Y cells assessed as cell viability incubated for 24 hrs; format: toxicity, cell-based; settings: read-out: Activity
SH-SY5Y [26] = assay: Effect on cell death pathway in human SH-SY5Y cells assessed as decrease in early apoptotic cells at 50 uM incubated for 24 hrs by Annexin V-FITC/PI staining based microscopy; format: functional
SH-SY5Y [27] = assay: Antioxidant activity against human SH-SY5Y cells assessed as increase in basal ECAR at 10 uM incubated for 24 hrs followed by addition of oligomycin/FCCP/antimycin A /rotenone by Cell Mito stress assay based seahorse XF96 flux analyzer; format: functional
SH-SY5Y [28] = assay: Cytotoxicity against human SH-SY5Y cells assessed as increase in cell viability at 10 to 100 uM incubated for 24 hrs; format: toxicity, cell-based; settings: dose 10-100 µM
SH-SY5Y [29] = assay: Induction of mitochondrial membrane polarization in human SH-SY5Y cells at 10 uM incubated for 24 hrs by JC-1 staining based fluorescence assay; format: functional
SH-SY5Y [30] = assay: Cytotoxicity against human SH-SY5Y cells incubated for 48 hrs; format: toxicity, cell-based
[31] = Drug uptake in C57BL/6J mouse liver mitochondria at 5 uM in presence of succinate by UPLC analysis; format: ADME

CS(=O)(=O)[O-].O=C(/C=C/c1ccc(O)c(O)c1)NCCCCCCCCCC[n+]1ccc2ccccc2c1
Activity (SH-SY5Y [1]): Active | Activity (SH-SY5Y [2]): 87.9% | Activity (SH-SY5Y [3]): Active | Activity (SH-SY5Y [4]): 86.8% | Activity (SH-SY5Y [5]): 85.6% | Drug uptake [6]: Not Active | Activity (SH-SY5Y [7]): Active | Activity (SH-SY5Y [8]): Active | Activity (SH-SY5Y [9]): 81.5% | Activity (SH-SY5Y [10]): Active | Activity (SH-SY5Y [11]): Active | Activity (SH-SY5Y [12]): inactive | Activity (SH-SY5Y [13]): Active | Activity (HepG2): Non-Toxic | Activity (SH-SY5Y [14]): Active | Activity (SH-SY5Y [15]): inactive | viability at 24 h [16]: ≥ 85% | Activity (SH-SY5Y [17]): 59.6% | Drug uptake [18]: Active | Activity (SH-SY5Y [19]): Active | Activity (SH-SY5Y [20]): Active | Activity (SH-SY5Y [21]): 89.7% | Activity (SH-SY5Y [22]): Active | pKa [23]: 8.45 | Activity (SH-SY5Y [24]): Active | viability at 24 h [25]: ≥ 85% | Activity (SH-SY5Y [26]): Active | Activity (SH-SY5Y [27]): Active | Activity (SH-SY5Y [28]): Non-Toxic | Activity (SH-SY5Y [29]): inactive | Activity (SH-SY5Y [30]): Non-Toxic | Drug uptake [31]: ~ 25%
